# Measurements: publication PMC12380353, “MK-8527 is a novel inhibitor of HIV-1 reverse transcriptase translocation with potential for extended-duration dosing” (PLOS Biology, 2025)
# Legend:
# HIV-1 = experiment: Multicycle antiviral assay in MT4-GFP cells; type: cell-based; settings: 10% NHS
# Protocol: Compounds were evaluated for their ability to prevent HIV-1 infection in MT4-GFP cells as described in Diamond, and colleagues. HIV-1 replication was monitored using the MT4-gag-GFP clone D3, and MT4 cells with a GFP reporter gene, the expression of which is dependent on the HIV-1 expressed proteins tat and rev. […] Proviral variants used for these studies were generated by site-directed mutagenesis in the WT R8 proviral plasmid. Virus was produced by transfection in 293T cells.
# Briefly, MT4-GFP cells were cultured overnight with the appropriate HIV-1 variant at an approximate multiplicity of infection of 0.01. After approximately 19 h of infection, the cells were washed and resuspended in assay media containing 10% normal human serum (NHS) before being added to 384-well compound plates containing 10-point serial 3-fold dilutions of compound. Controls included no inhibitor (dimethyl sulfoxide [DMSO] only) and a combination of 3 antiviral agents, efavirenz, indinavir, and an integrase strand transfer inhibitor, L-002254051, at final concentrations of 4 µM each. The infected or treated cells were cultured at 37 °C, 5% CO2, and 90% humidity until evaluation of infection was conducted at approximately 48 and 72 h post-infection by counting the number of GFP cells in each well using an Acumen eX3 scanner (SPT Labtech; Melbourn, UK). The reproductive ratio, R, was calculated by dividing the number of infected cells at 72 h by the number at 48 h post-infection. The percentage inhibition caused by a test compound was calculated by the following formula:
# inhibition = [1−(Rtest compound − Rpositive control)]/(RDMSO only − Rpositive control) × 100%\]
# The dose–response curves of each test compound were plotted as percentage inhibition versus the test concentration.
# PK in rats = type: in vivo; settings: male, Wistar Hannover, plasma, rat
# Protocol: All animal procedures were conducted according to the highest ethical standards using procedures approved by the Institutional Animal Care and Use Committee of Merck & Co., Rahway, NJ, USA (APS 2016-600774-FEB). Fasted male Wistar Hannover rats (n = 3 in each arm) weighing approximately 325 g were used for the PK studies. All blood samples were collected in EDTA-coated tubes at the time points specified below. For the IV arm of the study, a cannula was implanted in the jugular vein for dose administration and blood sampling. […] For the oral arm of the study, a solution of MK-8527 was administered by oral gavage at 2 mg/kg in 0.5% methylcellulose in water to fasted rats. […] The concentrations of MK-8527 in plasma were determined by LC–MS/MS assays following a protein precipitation step. Aliquots (50 µL) of plasma were precipitated by addition of 150 µL of acetonitrile solution-containing internal standard (IS), followed by centrifugation at 3,000 rpm for 10 min. A 75-µL aliquot of the supernatant was transferred into a 96-well plate, and 5 µL of each sample was used for analysis. LC–MS/MS analysis was performed on a Transcend LC system with HTS PAL CTC autosampler (Thermo Fisher Scientific, Waltham, MA, USA) interfaced to an API-5000 mass spectrometer using the turbo ion spray interface (Sciex, Framingham, MA, USA). Separation of MK-8527 was achieved on an Xselect HSS XP T3 column (50 × 2.1 mm, 2.5 µm; […] The chromatography for plasma samples was run using gradient elution as follows: the column was equilibrated with 100% A. […] The total run time was 4.15 min. Quantification was done by monitoring the transition of m/z 309 to m/z 169 or 133 for MK-8527. The method was linear across a concentration range of 2–10,000 ng/mL in plasma.
# [1] = target: human DNA polymerases α and β and human mitochondrial DNA polymerase γ; experiment: Human DNA polymerase inhibition assays (summary for α, β, γ); type: biochemical; settings: read-out: IC50 values against human DNA polymerases tested
# Protocol: The activities of human DNA polymerases α, β, and γ were measured in radiolabeled nucleotide incorporation assays. TP was prepared as a 10-point titration with 3-fold serial dilution in water. Reaction buffers for the DNA polymerase α and β assays both contained 20 mM Tris pH 7.5, 10 mM MgCl2, 50 μM EDTA, 200 μg/mL bovine serum albumin (BSA), 2 mM dithiothreitol (DTT), 1.6 μM each of dNTP (dATP, dCTP, dGTP, and dTTP), 20 μCi/mL [α33P]dATP, 0.1 mg/mL gapped activated fish sperm DNA template, test compound, and 0.005 U/μL DNA polymerase α or 0.0025 U/μL DNA polymerase β. The reaction buffer for DNA polymerase γ contained 20 mM Tris pH 8, 10 mM MgCl2, 50 mM KCl, 100 μg/mL BSA, 2 mM β-mercaptoethanol, 10 μM of each dNTP (dATP, dCTP, dGTP, and dTTP), 20 μCi/mL [α33P]dATP, 0.04 mg/mL gapped activated fish sperm DNA template, test compound, and 0.0003 μg/μL DNA polymerase γ. The 50-μL reactions were incubated at room temperature for 30 min (for β and γ) or 90 min (for α) before terminating with the addition of 50 μL 500 mM EDTA. The reaction mixtures were transferred to a Millipore DE81 filter plate (EMD Millipore; Hayward, CA), washed with 0.5 M sodium phosphate pH 7.0, and dried. After addition of 40 μL scintillant to each well, the incorporation of labeled dATP was determined with a microplate counter (TopCount NXT HTS; PerkinElmer, Shelton, CA, USA).
SMILES,"IC50 (HIV-1; Human immunodeficiency virus 1, WT HIV-1, multicycle assay)","MT4-GFP IC50 (HIV-1; WT HIV-1, multicycle assay)","IC50 (HIV-1; WT HIV-1, multicycle assay, listed as MK-8527)","clearance (PK in rats; IV 1.0 mg/kg, read-out: CLp)","Vd (PK in rats; IV 1.0 mg/kg, read-out: Vdss)",bioavailability (PK in rats; oral 2 mg/kg),"half-life (PK in rats; IV 1.0 mg/kg, read-out: t½ (converted))",IC50 [1]
"C#C[C@]1(CO)O[C@@H](n2ccc3c(N)nc(Cl)nc32)C[C@@H]1O [Compound 12, (2R,3S,5R)-5-(4-amino-2-chloro-7H-pyrrolo[2,3-d]pyrimidin-7-yl)-2-ethynyl-2-(hydroxymethyl)tetrahydrofuran-3-ol]",3.4 nM,single-digit nanomolar potency,3.37 ± 1 nM,18.1 ± 3.3 mL/min/kg,2 ± 0.3 L/kg,57%,2.3 ± 1.3 h,
C#C[C@]1(COP(=O)(O)OP(=O)(O)OP(=O)(O)O)O[C@@H](n2ccc3c(N)nc(Cl)nc32)C[C@@H]1O [MK-8527-TP],,,,,,,,≥ 95000 nM
